The supplement of paper PMC10307832

How the values were obtained:
Test in all cases: relative viability (nuclei count vs DMSO), 5 days (fraction); higher = more cells survive
[1] = compound: Cc1ccc(-n2nc(C(C)(C)C)cc2NC(=O)Nc2ccc(OCCN3CCOCC3)c3ccccc23)cc1 [Doramapimod] + CC(C)C[C@H](NC(=O)[C@H](Cc1ccccc1)NC(=O)c1cnccn1)B(O)O [Bortezomib] (partner 0.002 µM)
Outline: (§1)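 Lung cancer cell lines were seeded in 1536-well plates and dosed by pin tool the next day, with either a single drug or a fixed anchor-drug dose combined with five library-drug doses (not always all listed) spaced in √10 steps. Five days later, one step fixed the cells and stained their nuclei (final 0.05% Triton X-100, 1% formaldehyde, 1 ug/ml Hoechst), and nuclei were counted on 4× images. Relative viability is the nuclei count in treated wells divided by the count in vehicle wells, and each value is the median of duplicate plates.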

[2] = compound: C1=CC=C2C(=C1)C=CC(=C2SSC3=C(C=CC4=CC=CC=C43)O)O [IPA-3] + CC1(C)CCC(c2ccc(Cl)cc2)=C(CN2CCN(c3ccc(C(=O)NS(=O)(=O)c4ccc(N[C@H](CCN5CCOCC5)CSc5ccccc5)c(S(=O)(=O)C(F)(F)F)c4)cc3)CC2)C1 [Navitoclax] (partner 0.5 µM)
Outline: as §1

[3] = compound: Cc1ccc(-n2nc(C(C)(C)C)cc2NC(=O)Nc2ccc(OCCN3CCOCC3)c3ccccc23)cc1 [Doramapimod] + C[C@]1(O)C[C@@H](c2nc(-c3ccc4ccc(-c5ccccc5)nc4c3)c3c(N)nccn32)C1 [Linsitinib] (partner 1 µM)
Outline: as §1

[4] = compound: C1=CC=C2C(=C1)C=CC(=C2SSC3=C(C=CC4=CC=CC=C43)O)O [IPA-3] + CS(=O)(=O)CCNCc1ccc(-c2ccc3ncnc(Nc4ccc(OCc5cccc(F)c5)c(Cl)c4)c3c2)o1 [Lapatinib] (partner 2 µM)
Outline: as §1

Cell Line | relative viability ([1]; first compound 0.02 µM) | relative viability ([1]; first compound 0.06325 µM) | relative viability ([1]; first compound 0.2 µM) | relative viability ([1]; first compound 0.6325 µM) | relative viability ([1]; first compound 2 µM) | relative viability ([2]; first compound 0.2 µM) | relative viability ([2]; first compound 0.6325 µM) | relative viability ([2]; first compound 2 µM) | relative viability ([2]; first compound 6.325 µM) | relative viability ([2]; first compound 20 µM) | relative viability ([3]; first compound 0.02 µM) | relative viability ([3]; first compound 0.06325 µM) | relative viability ([3]; first compound 0.2 µM) | relative viability ([3]; first compound 0.6325 µM) | relative viability ([3]; first compound 2 µM) | relative viability ([4]; first compound 0.2 µM) | relative viability ([4]; first compound 0.6325 µM) | relative viability ([4]; first compound 2 µM) | relative viability ([4]; first compound 6.325 µM) | relative viability ([4]; first compound 20 µM)
LXF-289 | 1.01 | 1.02 | 1.03 | 1.02 | 0.907 | 0.992 | 0.911 | 1.01 | 0.957 | 1.04 | 0.961 | 0.92 | 0.896 | 0.933 | 0.939 | 0.976 | 0.869 | 0.973 | 0.941 | 0.931
LOU-NH91 | 0.47 | 0.506 | 0.532 | 0.444 | 0.672 | 0.705 | 0.67 | 0.744 | 0.67 | 0.868 | 0.967 | 0.91 | 0.972 | 1.06 | 0.686 | 0.745 | 0.799 | 0.74 | 0.77 | 0.789
NCI-H23 | 1.01 | 1.07 | 1.06 | 1.11 | 1.04 | 1.14 | 0.709 | 0.858 | 0.991 | 1.1 | 0.648 | 0.528 | 0.511 | 0.664 | 0.565 | 1.16 | 1.04 | 1.24 | 1.09 | 0.735
NCI-H1993 | 1.3 | 0.993 | 1.03 | 1.53 | 0.97 | 0.973 | 0.911 | 0.896 | 0.894 | 0.838 | 0.663 | 0.708 | 0.795 | 0.753 | 0.755 | 0.829 | 0.742 | 0.767 | 0.909 | 0.738
HCC-827 | 0.963 | 1.03 | 1.01 | 0.931 | 0.969 | 1.01 | 1.01 | 1 | 0.99 | 0.993 | 1 | 0.918 | 0.952 | 0.933 | 0.752 | 0.216 | 0.191 | 0.161 | 0.165 | 0.189
CAL-12T | 1.01 | 1.11 | 1.16 | 1 | 0.818 | 1.41 | 1.21 | 1.39 | 1.19 | 1.23 | 0.806 | 0.804 | 0.745 | 0.851 | 0.627 | 0.919 | 0.651 | 0.761 | 0.643 | 0.756
NCI-H838 | 1.05 | 0.965 | 1.01 | 1.22 | 0.73 | 1.35 | 1.07 | 1.24 | 1.1 | 1.25 | 0.9 | 1.04 | 1.02 | 1.1 | 0.994 | 1.55 | 0.964 | 0.941 | 1.01 | 1.07
NCI-H2228 | 0.952 | 0.966 | 1.11 | 1.06 | 0.758 | 0.917 | 0.89 | 0.788 | 0.886 | 1.02 | 0.762 | 0.449 | 0.632 | 0.65 | 0.464 | 1.87 | 1.39 | 1.24 | 0.825 | 1.18
RERF-LC-KJ | 1.19 | 1.05 | 1.29 | 1.07 | 1.04 | 1.53 | 0.879 | 1.1 | 0.877 | 1.06 | 0.871 | 0.912 | 0.899 | 0.952 | 0.864 | 1 | 0.828 | 0.764 | 0.801 | 0.897
HCC-366 | 1.02 | 1 | 1.09 | 1.14 | 1.01 | 1.18 | 1.01 | 1.19 | 1.03 | 1.18 | 0.561 | 0.515 | 0.475 | 0.673 | 0.548 | 1.08 | 1.05 | 1.09 | 1.09 | 1.18
SK-LU-1 | 1.41 | 1.37 | 1.51 | – | 1.15 | 1.39 | – | 0.786 | 0.878 | 0.971 | 1.07 | 1.02 | 1.2 | 1.16 | 0.941 | 1.18 | 0.744 | 1.01 | 0.756 | 0.692
HCC-44 | 0.941 | 1.01 | 0.814 | 0.86 | 0.833 | 1.11 | 0.969 | 0.977 | 1 | 0.942 | 0.662 | 0.669 | 0.675 | 0.634 | 0.626 | 0.995 | 1.02 | 1.05 | 0.883 | 1.03
A-427 | 0.907 | 1.05 | 1 | – | 1.12 | 0.996 | 0.857 | 0.98 | 0.856 | 0.99 | 1.17 | 1.21 | 1.24 | – | 1.16 | 1.17 | 0.997 | 0.981 | 1.09 | 1.2
SW 1573 | 0.944 | 0.927 | 0.813 | 0.764 | 0.875 | 0.99 | 0.67 | 1.21 | 1.09 | 1.13 | 0.722 | 0.74 | 0.8 | 0.739 | 0.736 | 1.17 | 1.09 | 1.03 | 1.06 | 1.06
NCI-H322M | 1.26 | 1.43 | 1.18 | 1.26 | 1.35 | 1.29 | 1.12 | 1.17 | 1.25 | 1.29 | 0.851 | 0.834 | 0.909 | 1.01 | 0.874 | 0.566 | 0.66 | 0.596 | 0.566 | 0.613
NCI-H2023 | 1 | 0.945 | 0.978 | 0.44 | 0.97 | 1.1 | 0.977 | 0.984 | 1.04 | 0.967 | 0.626 | 0.718 | 0.533 | 0.738 | 0.575 | 0.91 | 0.711 | 0.774 | 0.925 | 0.832
NCI-H596 | 0.994 | 1.13 | 1.21 | 1.24 | 1.02 | 0.969 | 1.08 | 0.985 | 0.894 | 1.16 | 0.99 | 1.03 | 1.02 | 1.05 | 1 | 1.09 | 1.09 | 1.13 | 1.03 | 1.35
IA-LM | 0.842 | 0.757 | 0.795 | 0.92 | 0.656 | 0.793 | 0.683 | 0.765 | 0.601 | 0.392 | 0.498 | 0.549 | 0.701 | 0.587 | 0.731 | 1.07 | 0.8 | 0.755 | 0.578 | 0.725
NCI-H2405 | 0.98 | 1.03 | 0.984 | 0.712 | 0.961 | 0.993 | 0.989 | 0.929 | 0.892 | 0.984 | 0.973 | 0.869 | 0.933 | 1.27 | 0.852 | 1.15 | 1 | 0.921 | 1.17 | 1.16
NCI-H460 | 0.961 | 1.12 | 1.11 | 1.24 | 1.05 | 1.45 | 0.968 | 1.45 | 1.04 | 1.09 | 0.71 | 0.736 | 0.733 | 0.875 | 0.641 | – | 0.807 | 1.1 | 0.889 | 1.19
NCI-H1755 | 1.03 | 1 | 0.793 | 0.897 | 0.831 | 1.07 | 1.01 | 1 | 1.03 | 1.02 | 0.982 | 1 | 1.02 | 1.05 | 0.996 | 1.11 | 0.988 | 1.05 | 1.06 | 1.17
NCI-H1734 | 0.845 | 0.859 | 0.766 | 0.966 | 0.724 | 1.1 | 0.834 | 0.781 | 0.844 | 1.02 | 0.864 | 0.755 | 0.721 | 0.767 | 0.662 | 1.19 | 0.969 | 1.12 | 0.982 | 0.892
EPLC-272H | 0.873 | 0.779 | 0.848 | 0.881 | 0.655 | 1.25 | 1.4 | 1.16 | 1.21 | 1.18 | 1.1 | 1.02 | 1.07 | 1.23 | 1.01 | 1.01 | 1.01 | 0.915 | 0.881 | 1.04
NCI-H2126 | 1.2 | 1.14 | 1.11 | 1.16 | 1.07 | 0.861 | 0.816 | 0.828 | 0.892 | 0.891 | 0.668 | 0.678 | 0.642 | 0.693 | 0.625 | 0.792 | 0.76 | 0.771 | 0.75 | 0.792
